Test results as given in PMC12058161, “The plant matrix of Artemisia annua L. for the treatment of malaria: Pharmacodynamic and pharmacokinetic studies” (PLOS One, 2025).
“And” between values parts separate entries of the source, which are not always exact repeats. Equal entries are not always repeated.

Legend:
[1] = Stability of the five compounds in SD rat plasma (QC samples, UHPLC-ESI-MS/MS); type: in vitro ADME; settings: for stability, Accuracy (measured versus nominal concentration) / stability, mean ± SD (measured concentration): SD rat plasma, n=5
Description: The method was validated according to the US Food and Drug Administration (FDA) Bioanalytical Method Validation Guidance as follows: [1] specificity was assessed by analyzing blank plasma, blank plasma spiked with standard solutions and rat plasma samples after oral administration. Each calibration curve was plotted using the concentration of the standard solution as the horizontal coordinate and the ratio of analyte to internal standard peak area as the vertical coordinate. The lower limit of quantification (LLOQ) refers to the lowest concentration, which is typically 10 times the signal-to-noise ratio. It has an acceptable accuracy of ± 20% and a precision of less than 20% [3]. Quality Control (QC) samples (low, medium and high concentrations) were prepared for each analyte. Five samples were analyzed at each concentration level and three consecutive batches were determined to calculate the accuracy and precision of the method. Extraction recovery was assessed by the ratio of the average peak area of routinely prepared QC samples (low, medium, and high concentrations) to the post-extraction plasma sample. Likewise, matrix effect was assessed by the ratio of peak areas between post-extraction samples spiked with analytes and mobile phases spiked with the same concentration of analytes.

[2] = male, Sprague Dawley, rat, in vivo
in vivo = settings: male, Sprague Dawley, rat, po, 352 mg/kg
Caco-2 cells = test: Cytotoxicity in Caco-2 cells, CCK-8 assay; type: cell-based, human; settings: for Cell survival rate%: mean; for cck-8 mean (survival fraction): mean of 6
Description: Caco-2 cells were cultured in 96-well plates for 48 h at a seeding density of 5.0 × 10^3 cells/well before the addition of drugs. […] The final concentration of DMSO was 0.05% (v/v). Experiments were initiated by replacing the culture medium in each well with 100 μL of sample solutions at 37°C in the CO2 incubator. After 48 h of incubation, the medium was removed and 10 μL of CCK-8 reagent in the serum-free medium was added to each well. The plates were then incubated at 37°C for another 2 h. At the end of the incubation period, the plates were quantified by reading the absorbance at 450 nm on a micro-plate multi-detection instrument, SpectraMax iD3 with SoftMax® Pro (Molecular Devices Corporation Sunnyvale, CA, USA). The percentage of cell viability was calculated based on the absorbance measured relative to the absorbance of cells exposed to the negative control.

P-glycoprotein (P-gp) = molecular target: T1, P-glycoprotein (P-gp) (Homo sapiens, UniProt P08183); test: Rhodamine 123 (P-gp substrate) transport across drug-treated Caco-2 cell monolayers; type: cell-based; settings: co-incubated with R123, 10 μM, Caco-2 monolayer, Fig 6
T1 construct: The transport of R123 in normal Caco-2 cell monolayers or drug-treated Caco-2 cell monolayers was further studied; host or cells: Caco-2
Text: The human epithelial cell line Caco-2 serves as a widely recognized model for the intestinal epithelial barrier, frequently utilized in the assessment of drug absorption and transport mechanisms. In this study, we evaluated drug absorption and distribution in vitro with the help of the Caco-2 cell model. Caco-2 cells were purchased from the Chinese Academy of Medical Sciences (Beijing, China, Resource No. 3111C0001CCC000100). The cells were resuscitated and inserted into culture flasks. Caco-2 cells were passaged with DMEM high glucose medium containing 10% (V/V) FBS, 1% (V/V) non-essential amino acid solution and 100 U/mL penicillin-streptomycin double antibiotic solution, and cultured at 37°C in a 5% CO2 incubator. […] The integrity of the cell monolayer was checked by measuring the transmembrane electrical resistance (TEER) of the monolayer cells with a Millicell-ERS electrode (Millipore Corp., Billerica, MA, USA). Caco-2 cells were used for transport experiments 17–21 days after inoculation. Besides, only monolayers with TEER values above 400 Ω/cm^2 were used in the study.
The transport of R123 in normal Caco-2 cell monolayers or drug-treated Caco-2 cell monolayers was further studied. […] The transport buffer containing 5 μM of R123 was added on either the AP or the BL side of the inserts, as described above. […] The concentrations of R123 were immediately analyzed by SpectraMax iD3. The excitation wavelength was set at 485 nm, and the emission wavelength at 535 nm. Papp values across the cell monolayers were calculated according to the equation: Papp = dQ/dt × 1/(A × C0), where dQ/dt represents the rate of drug transport. […] The efflux ratio was calculated using the Papp (BL-AP) to Papp (AP-BL) ratio.

CYP3A4 = settings: read-out: IC50 of CYP3A4 inhibition; cited from earlier work
[3] = nominal 160 ng/mL, 3 freeze-thaw cycles
[4] = nominal 160 ng/mL, 7 days at -80°C
[5] = nominal 160 ng/mL, Room temperature 24h
[6] = nominal 1000 ng/mL, 3 freeze-thaw cycles
[7] = nominal 1000 ng/mL, 7 days at -80°C
[8] = nominal 1000 ng/mL, Room temperature 24h
[9] = nominal 5000 ng/mL, 3 freeze-thaw cycles
[10] = nominal 5000 ng/mL, 7 days at -80°C
[11] = nominal 5000 ng/mL, Room temperature 24h
[12] = Caco-2, concentration 10 μmol/L
[13] = Caco-2, concentration 20 μmol/L
[14] = Caco-2, concentration 40 μmol/L
[15] = Caco-2, concentration 80 μmol/L

T1 sequence (P08183 whole entry): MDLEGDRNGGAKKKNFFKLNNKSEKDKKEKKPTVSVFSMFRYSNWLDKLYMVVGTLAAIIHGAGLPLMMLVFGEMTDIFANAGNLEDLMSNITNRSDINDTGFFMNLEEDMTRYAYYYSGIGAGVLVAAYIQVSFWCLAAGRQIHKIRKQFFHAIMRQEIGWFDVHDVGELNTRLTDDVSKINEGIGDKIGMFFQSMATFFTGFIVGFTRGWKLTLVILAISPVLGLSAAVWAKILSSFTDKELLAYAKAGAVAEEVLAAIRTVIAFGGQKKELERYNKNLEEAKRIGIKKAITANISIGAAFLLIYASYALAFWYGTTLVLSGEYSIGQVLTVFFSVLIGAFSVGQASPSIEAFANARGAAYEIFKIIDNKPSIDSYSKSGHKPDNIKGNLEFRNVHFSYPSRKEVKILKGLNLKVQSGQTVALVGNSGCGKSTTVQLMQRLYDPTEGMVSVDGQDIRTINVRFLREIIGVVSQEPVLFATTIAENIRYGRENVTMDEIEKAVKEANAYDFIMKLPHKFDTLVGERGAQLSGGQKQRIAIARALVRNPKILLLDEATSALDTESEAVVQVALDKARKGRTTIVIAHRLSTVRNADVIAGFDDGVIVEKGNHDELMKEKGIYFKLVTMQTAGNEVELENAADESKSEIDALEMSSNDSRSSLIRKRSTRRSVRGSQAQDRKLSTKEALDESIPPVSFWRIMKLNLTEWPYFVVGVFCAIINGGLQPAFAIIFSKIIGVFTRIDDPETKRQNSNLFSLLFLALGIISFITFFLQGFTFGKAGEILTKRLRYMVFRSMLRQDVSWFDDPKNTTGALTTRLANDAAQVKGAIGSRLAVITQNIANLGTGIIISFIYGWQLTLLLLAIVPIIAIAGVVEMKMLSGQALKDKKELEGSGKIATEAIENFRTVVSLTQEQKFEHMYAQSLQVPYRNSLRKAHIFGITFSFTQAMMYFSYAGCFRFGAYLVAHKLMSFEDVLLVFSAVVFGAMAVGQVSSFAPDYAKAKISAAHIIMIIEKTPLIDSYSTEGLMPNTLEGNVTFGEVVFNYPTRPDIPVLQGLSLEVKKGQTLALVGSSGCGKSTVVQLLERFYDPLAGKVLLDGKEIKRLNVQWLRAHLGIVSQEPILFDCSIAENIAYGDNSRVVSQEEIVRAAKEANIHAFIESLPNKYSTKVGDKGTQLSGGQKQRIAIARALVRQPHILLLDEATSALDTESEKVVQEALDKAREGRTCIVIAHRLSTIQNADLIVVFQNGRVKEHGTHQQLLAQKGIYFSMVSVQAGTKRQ

CC1=C[C@H]2[C@@H](CC1)[C@H](C)CC[C@H]2[C@@H](C)C(=O)O [DHAA, Dihydroartemisinic acid]
Stability, measured concentration, mean ± SD ([1]; QC sample 160 ng/mL, 3 freeze-thaw cycles): 161 ± 10.8 ng/mL and 160.872 ng/mL | Stability, measured concentration, mean ± SD ([1]; QC sample 160 ng/mL, 7 days at -80°C): 149 ± 5.80 ng/mL and 149.16 ng/mL | Stability, measured concentration, mean ± SD ([1]; QC sample 160 ng/mL, Room temperature 24h): 151 ± 5.81 ng/mL and 151.046 ng/mL | Stability, measured concentration, mean ± SD ([1]; QC sample 1000 ng/mL, 3 freeze-thaw cycles): 914 ± 35.7 ng/mL and 914.334 ng/mL | Stability, measured concentration, mean ± SD ([1]; QC sample 1000 ng/mL, 7 days at -80°C): 1064 ± 21.4 ng/mL and 1063.64 ng/mL | Stability, measured concentration, mean ± SD ([1]; QC sample 1000 ng/mL, Room temperature 24h): 959.663 ng/mL and 960 ± 45.4 ng/mL | Stability, measured concentration, mean ± SD ([1]; QC sample 5000 ng/mL, 3 freeze-thaw cycles): 4813 ± 108 ng/mL and 4813.44 ng/mL | Stability, measured concentration, mean ± SD ([1]; QC sample 5000 ng/mL, 7 days at -80°C): 4814 ± 118 ng/mL and 4813.94 ng/mL | Stability, measured concentration, mean ± SD ([1]; QC sample 5000 ng/mL, Room temperature 24h): 5079.03 ng/mL and 5079 ± 336 ng/mL | stability, Accuracy (measured versus nominal concentration) [1, 3]: 100.54% | stability, mean ± SD (measured concentration) [1, 3]: 161 ± 10.8 ng/mL | stability, Accuracy (measured versus nominal concentration) [1, 4]: 93.23% | stability, mean ± SD (measured concentration) [1, 4]: 149 ± 5.80 ng/mL | stability, Accuracy (measured versus nominal concentration) [1, 5]: 94.40% | stability, mean ± SD (measured concentration) [1, 5]: 151 ± 5.81 ng/mL | stability, Accuracy (measured versus nominal concentration) [1, 6]: 91.43% | stability, mean ± SD (measured concentration) [1, 6]: 914 ± 35.7 ng/mL | stability, Accuracy (measured versus nominal concentration) [1, 7]: 106.36% | stability, mean ± SD (measured concentration) [1, 7]: 1064 ± 21.4 ng/mL | stability, Accuracy (measured versus nominal concentration) [1, 8]: 95.97% | stability, mean ± SD (measured concentration) [1, 8]: 960 ± 45.4 ng/mL | stability, Accuracy (measured versus nominal concentration) [1, 9]: 96.27% | stability, mean ± SD (measured concentration) [1, 9]: 4813 ± 108 ng/mL | stability, Accuracy (measured versus nominal concentration) [1, 10]: 96.28% | stability, mean ± SD (measured concentration) [1, 10]: 4814 ± 118 ng/mL | stability, Accuracy (measured versus nominal concentration) [1, 11]: 101.58% | stability, mean ± SD (measured concentration) [1, 11]: 5079 ± 336 ng/mL | CLz [2]: 24 mL/day/kg | CL ([2]; po, 352 mg/kg): 0.001 ± 0.001 L/h | Vz ([2]; po, 352 mg/kg): 0.005 ± 0.001 L | AUC(0-inf) (in vivo): 29700 ± 6700 ng·h/mL | AUC(0-t) (in vivo): 28700 ± 6660 ng·h/mL | Cmax (in vivo; Cmax): 10400 ± 2440 ng/mL | MRT inf (in vivo; MRT(0-∞)): 6.08 ± 1.27 h | half-life (in vivo; t1/2): 4.64 ± 1.18 h | half-life (in vivo; t1/2z): 3.97 h | Cell survival rate%, single replicate (Caco-2 cells; Caco-2, 5μmol/L): 84.02% and 84.22% and 87.64% and 85.87% and 89.84% and 87.8% | Cell survival rate%, single replicate (Caco-2 cells; Caco-2, 10μmol/L): 84.68% and 88.84% and 86.58% and 89.08% and 86.49% and 80.21% | Cell survival rate%, single replicate (Caco-2 cells; Caco-2, 20μmol/L): 84.63% and 81.53% and 85.05% and 89.44% and 83.52% and 78.29% | Cell survival rate%, single replicate (Caco-2 cells; Caco-2, 40μmol/L): 84.99% and 84.53% and 82.56% and 83.98% and 80.6% and 81.3% | Cell survival rate%, single replicate (Caco-2 cells; Caco-2, 80μmol/L): 80.04% and 80.37% and 80.83% and 80.86% and 80.51% and 80.11% | cck-8 cell survival as fraction, single replicate (Caco-2 cells; Caco-2, concentration 5 μmol/L): 0.8402 and 0.8422 and 0.8764 and 0.8587 and 0.8984 and 0.878 | Cell survival rate% (Caco-2 cells; Caco-2, concentration 5 μmol/L): 86.56% | cck-8 mean (survival fraction) (Caco-2 cells; Caco-2, concentration 5 μmol/L): 0.87 | cck-8 cell survival as fraction, single replicate (Caco-2 cells; [12]): 0.8468 and 0.8884 and 0.8658 and 0.8908 and 0.8649 and 0.8021 | Cell survival rate% (Caco-2 cells; [12]): 85.98% | cck-8 mean (survival fraction) (Caco-2 cells; [12]): 0.86 | cck-8 cell survival as fraction, single replicate (Caco-2 cells; [13]): 0.8463 and 0.8153 and 0.8505 and 0.8944 and 0.8352 and 0.7829 | Cell survival rate% (Caco-2 cells; [13]): 83.74% | cck-8 mean (survival fraction) (Caco-2 cells; [13]): 0.84 | cck-8 cell survival as fraction, single replicate (Caco-2 cells; [14]): 0.8499 and 0.8453 and 0.8256 and 0.8398 and 0.806 and 0.813 | Cell survival rate% (Caco-2 cells; [14]): 82.99% | cck-8 mean (survival fraction) (Caco-2 cells; [14]): 0.83 | cck-8 cell survival as fraction, single replicate (Caco-2 cells; [15]): 0.8004 and 0.8037 and 0.8083 and 0.8086 and 0.8051 and 0.8011 | Cell survival rate% (Caco-2 cells; [15]): 80.45% | cck-8 mean (survival fraction) (Caco-2 cells; [15]): 0.80 | reduction of R123 transport from the BL side to the AP side (P-glycoprotein (P-gp)): 45.21%

C=C1C(=O)O[C@@]23[C@H]1CC[C@@H](C)[C@@H]2CC[C@@]1(C)O[C@@H]31 [arteannuin B]
IC50 (CYP3A4): 1200 nM
